Reference: patent US10865208B2, “ATG7 inhibitors and the uses thereof” (Millennium Pharmaceuticals, Inc., priority 2016, dated 2020)

Target: recombinant human His-ATG7 enzyme (Homo sapiens (Human), UniProt O95352)
Experiment: ATG7 Enzyme Assay (HTRF/FRET, ATG3-GST and Flag-Gabarap)
Type: biochemical
Conditions: for inhibition at 0.111 µM: Concentration 0.111 μM
Outline: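 HTRF read-out after 2 h at 24° C, using Eu-cryptate anti-Flag and XL-APC anti-GST antibodies in an EDTA stop buffer. The preceding 105 min, 24° C reaction (pH 7.5) held 10 μM ATP, 5 nM each ATG3-GST and Flag-Gabarap, and 0.15 nM human His-ATG7. Values are IC50 or percent inhibition at one concentration.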

[1] = Concentration 0.123 μM, read-out: Percent Inhibition

Chain of recombinant human His-ATG7 enzyme (O95352 whole entry): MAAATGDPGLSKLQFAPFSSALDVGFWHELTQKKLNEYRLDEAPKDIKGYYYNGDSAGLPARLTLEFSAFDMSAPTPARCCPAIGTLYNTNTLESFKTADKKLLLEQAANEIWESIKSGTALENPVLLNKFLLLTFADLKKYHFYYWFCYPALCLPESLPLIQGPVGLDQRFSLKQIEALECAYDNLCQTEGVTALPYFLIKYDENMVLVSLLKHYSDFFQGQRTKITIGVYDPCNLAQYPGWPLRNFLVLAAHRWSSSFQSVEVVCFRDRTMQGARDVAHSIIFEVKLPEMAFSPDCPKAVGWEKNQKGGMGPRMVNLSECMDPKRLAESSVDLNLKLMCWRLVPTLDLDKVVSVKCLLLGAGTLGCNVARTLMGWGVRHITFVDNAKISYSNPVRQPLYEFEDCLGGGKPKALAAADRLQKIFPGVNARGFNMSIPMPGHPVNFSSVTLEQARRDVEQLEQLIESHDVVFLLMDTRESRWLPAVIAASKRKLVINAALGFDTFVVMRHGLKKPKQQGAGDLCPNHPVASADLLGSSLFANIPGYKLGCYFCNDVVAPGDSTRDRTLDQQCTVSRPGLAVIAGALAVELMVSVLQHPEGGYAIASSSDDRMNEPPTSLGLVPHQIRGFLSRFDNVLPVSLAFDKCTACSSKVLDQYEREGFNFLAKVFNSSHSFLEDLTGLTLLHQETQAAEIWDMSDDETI

IC50 [nM] | Percent Inhibition (Concentration 0.123 μM) [%] | inhibition at 0.069 µM (Concentration 0.069 μM, read-out: Percent Inhibition) [%] | inhibition at 0.123 µM [1] [%] | inhibition at 0.111 µM (read-out: Percent Inhibition) [%] | SMILES
100 to 500 | – | – | – | 37 | Cn1ccnc1Sc1nn([C@@H]2O[C@H](COS(N)(=O)=O)[C@@H](O)[C@@H]2F)c2ncnc(N)c12 [Compound I-125, [(2R,3R,4S,5R)-5-{4-amino-3-[(1-methyl-1H-imidazol-2-yl)sulfanyl]-1H-pyrazolo[3,4-d]pyrimidin-1-yl}-4-fluoro-3-hydroxytetrahydrofuran-2-yl]methyl sulfamate]
100 to 500 | – | – | – | 42 | Nc1ncnc2c1c(C(F)(F)F)nn2[C@H]1C[C@H](O)[C@H](COS(N)(=O)=O)O1 [Compound I-209, {(2S,3S,5R)-5-[4-amino-3-(trifluoromethyl)-1H-pyrazolo[3,4-d]pyrimidin-1-yl]-3-hydroxytetrahydrofuran-2-yl}methyl Sulfamate]
> 500 | – | – | – | 19 | Nc1ncnc2c1c(C1CC1)nn2[C@@H]1O[C@H](COS(N)(=O)=O)[C@@H](O)[C@@H]1F [Compound I-108, [(2R,3R,4S,5R)-5-(4-amino-3-cyclopropyl-1H-pyrazolo[3,4-d]pyrimidin-1-yl)-4-fluoro-3-hydroxytetrahydrofuran-2-yl]methyl sulfamate]
20 to 50 | – | – | – | 79 | Nc1ncnc2c1c(Sc1ccccn1)nn2[C@H]1C[C@H](O)[C@@H](COS(N)(=O)=O)O1 [Compound I-194, {(2R,3S,5R)-5-[4-amino-3-(pyridin-2-ylsulfanyl)-1H-pyrazolo[3,4-d]pyrimidin-1-yl]-3-hydroxytetrahydrofuran-2-yl}methyl sulfamate]
100 to 500 | – | – | 35 | – | COc1nn([C@H]2C[C@H](O)[C@@H](COS(N)(=O)=O)O2)c2ncnc(N)c12 [Compound I-190, [(2R,3S,5R)-5-(4-amino-3-methoxy-1H-pyrazolo[3,4-d]pyrimidin-1-yl)-3-hydroxytetrahydrofuran-2-yl]methyl Sulfamate]
20 to 50 | – | – | – | 82 | Nc1ncnc2c1c(SCC1CC1)nn2[C@@H]1O[C@H](COS(N)(=O)=O)[C@@H](O)[C@@H]1F [Compound I-135, [(2R,3R,4S,5R)-5-{4-amino-3-[(cyclopropylmethyl)sulfanyl]-1H-pyrazolo[3,4-d]pyrimidin-1-yl}-4-fluoro-3-hydroxytetrahydrofuran-2-yl]methyl sulfamate]
20 to 50 | – | – | – | 68 | Nc1ncnc2c1c(Sc1ccc3c(c1)OCCO3)nn2[C@H]1C[C@H](O)[C@@H](COS(N)(=O)=O)O1 [Compound I-201, {(2R,3S,5R)-5-[4-amino-3-(2,3-dihydro-1,4-benzodioxin-6-ylsulfanyl)-1H-pyrazolo[3,4-d]pyrimidin-1-yl]-3-hydroxytetrahydrofuran-2-yl}methyl sulfamate]
20 to 50 | – | – | – | 73 | Nc1ncnc2c1c(Sc1nccs1)nn2[C@H]1C[C@H](O)[C@@H](COS(N)(=O)=O)O1 [Compound I-174, {(2R,3S,5R)-5-[4-amino-3-(1,3-thiazol-2-ylsulfanyl)-1H-pyrazolo[3,4-d]pyrimidin-1-yl]-3-hydroxytetrahydrofuran-2-yl}methyl sulfamate]

Continued, compound first:

SMILES | IC50 [nM] | Percent Inhibition (Concentration 0.123 μM) [%] | inhibition at 0.069 µM (Concentration 0.069 μM, read-out: Percent Inhibition) [%] | inhibition at 0.123 µM [1] [%] | inhibition at 0.111 µM (read-out: Percent Inhibition) [%]
CC(O)CSc1nn([C@@H]2O[C@H](COS(N)(=O)=O)[C@@H](O)[C@H]2O)c2ncnc(N)c12 (single isomer, unassigned) [Compound I-55a, [(2R,3S,4R,5R)-5-(4-amino-3-{[(2R)-2-hydroxypropyl]sulfanyl}-1H-pyrazolo[3,4-d]pyrimidin-1-yl)-3,4-dihydroxytetrahydrofuran-2-yl]methyl sulfamate or [(2R,3S,4R,5R)-5-(4-amino-3-{[(2S)-2-hydroxypropyl]sulfanyl}-1H-pyrazolo[3,4-d]pyrimidin-1-yl)-3,4-dihydroxytetrahydrofuran-2-yl]methyl Sulfamate] | 50 to 100 | 71 | – | – | –
CC(C)c1nn([C@@H]2O[C@H](COS(N)(=O)=O)[C@@H](O)[C@H]2O)c2ncnc(N)c12 [Compound I-3, [(2R,3S,4R,5R)-5-(4-amino-3-isopropyl-1H-pyrazolo[3,4-d]pyrimidin-1-yl)-3,4-dihydroxytetrahydrofuran-2-yl]methyl Sulfamate] | 100 to 500 | – | 24 | – | –
Cc1ccccc1CSc1nn([C@@H]2O[C@H](COS(N)(=O)=O)[C@@H](O)[C@H]2O)c2ncnc(N)c12 [Compound I-39, [(2R,3S,4R,5R)-5-{4-amino-3-[(2-methylbenzyl)sulfanyl]-1H-pyrazolo[3,4-d]pyrimidin-1-yl}-3,4-dihydroxytetrahydrofuran-2-yl]methyl sulfamate] | 20 to 50 | – | – | 75 | –
COCCSc1nn([C@@H]2O[C@H](COS(N)(=O)=O)[C@@H](O)[C@@H]2F)c2ncnc(N)c12 [Compound I-154, [(2R,3R,4S,5R)-5-{4-amino-3-[(2-methoxyethyl)sulfanyl]-1H-pyrazolo[3,4-d]pyrimidin-1-yl}-4-fluoro-3-hydroxytetrahydrofuran-2-yl]methyl sulfamate] | 50 to 100 | – | – | – | 64
CC(CO)Sc1nn([C@@H]2O[C@H](COS(N)(=O)=O)[C@@H](O)[C@@H]2F)c2ncnc(N)c12 (mixture of isomers) [Compound I-144, [(2R,3R,4S,5R)-5-(4-amino-3-{[(2R)-1-hydroxypropan-2-yl]sulfanyl}-1H-pyrazolo[3,4-d]pyrimidin-1-yl)-4-fluoro-3-hydroxytetrahydrofuran-2-yl]methyl sulfamate and [(2R,3R,4S,5R)-5-(4-amino-3-{[(2S)-1-hydroxypropan-2-yl]sulfanyl}-1H-pyrazolo[3,4-d]pyrimidin-1-yl)-4-fluoro-3-hydroxytetrahydrofuran-2-yl]methyl sulfamate] | 20 to 50 | – | – | – | 74
Nc1ncnc2c1c(SCc1ccccc1)nn2[C@@H]1O[C@H](COS(N)(=O)=O)[C@@H](O)[C@@H]1F [Compound I-155, {(2R,3R,4S,5R)-5-[4-amino-3-(benzylsulfanyl)-1H-pyrazolo[3,4-d]pyrimidin-1-yl]-4-fluoro-3-hydroxytetrahydrofuran-2-yl}methyl sulfamate] | 20 to 50 | – | – | 75 | –
Cc1ccc(CSc2nn([C@@H]3O[C@H](COS(N)(=O)=O)[C@@H](O)[C@H]3O)c3ncnc(N)c23)cc1 [Compound I-41, [(2R,3S,4R,5R)-5-{4-amino-3-[(4-methylbenzyl)sulfanyl]-1H-pyrazolo[3,4-d]pyrimidin-1-yl}-3,4-dihydroxytetrahydrofuran-2-yl]methyl sulfamate] | 20 to 50 | – | – | – | 85
C=CCOc1nn([C@@H]2O[C@H](COS(N)(=O)=O)[C@@H](O)[C@H]2O)c2ncnc(N)c12 [Compound I-71, {(2R,3S,4R,5R)-5-[3-(allyloxy)-4-amino-1H-pyrazolo[3,4-d]pyrimidin-1-yl]-3,4-dihydroxytetrahydrofuran-2-yl}methyl Sulfamate] | 100 to 500 | – | – | 38 | –
Nc1ncnc2c1c(SCc1ccc(F)cc1)nn2[C@@H]1O[C@H](COS(N)(=O)=O)[C@@H](O)[C@H]1O [Compound I-63, [(2R,3S,4R,5R)-5-{4-amino-3-[(4-fluorobenzyl)sulfanyl]-1H-pyrazolo[3,4-d]pyrimidin-1-yl}-3,4-dihydroxytetrahydrofuran-2-yl]methyl sulfamate] | 20 to 50 | – | – | – | 83
